This note sets out measurements from patent publication US20240018153A1, “BENZENESULFONAMIDE DERIVATIVES AND USES THEREOF” (2692372 ONTARIO, INC., priority 2020, published 2024).

Experiment [1] has as its system β-Tubulin. The experiment is described as follows: K562 cell lysis and immunoassay, β-tubulin degradation. The experiment is classed as cell-based. More on the design: key: Y: β-tubulin bound in cells and tubulin degradation occurred. The conditions noted are these: K562 cells. As for the experimental part:
K562 cells (ATCC) were cultured in Iscove's Modified Dulbecco's Medium (IMDM) (Wisent) supplemented with 10% FBS and 1% penicillin/streptomycin. Cells were seeded in 6-well plates at 1.71×10^6 cells/well and incubated at 37° C., 5% CO2 for 16 hours. Cells were treated with compounds at the indicated concentrations or DMSO alone and incubated at 37° C., 5% CO2 for 24 hours. Cell suspensions were centrifugated at 1,400 RPM for 5 minutes at room temperature and supernatants were discarded. Cell pellets were resuspended with 1× RIPA buffer (Millipore) and incubated on ice for 15 minutes. Protein lysates were extracted by centrifugating at 20,000 RPM for 20 minutes at 4° C. Proteins were separated and total β-Tubulin levels were quantified by Simple Western Immunoassay (ProteinSimple) using the Protein Normalization Assay Module for Jess (ProteinSimple) according to the manufacturer's protocol, using a protein concentration of 0.05 μg/μl and an antibody targeting β-Tubulin (Abcam) diluted to 1:800. β-Tubulin levels were quantified relative to the Protein Normalization Reagent and subsequently normalized to the DMSO control.

The target in experiment [2] is JAK3 (Homo sapiens (Human), UniProt P52333). Put plainly: HTRF KinEASE-TK kinase assay, JAK3. The experiment is classed as biochemical. To be noted: for remaining activity at 1 µM: read-out: % JAK3 Remaining activity vs DMSO (1 μM, 3 h); for remaining activity at 10 µM: read-out: % JAK3 Remaining activity vs DMSO (10 μM, 3 h); for IC50: dose response. A digest of the protocol:
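HTRF read-out: the Em665/Em620 ratio, measured 60 min after stopping with EDTA, 31.25 nM SA-XL665 and 100-fold diluted Eu-antibody, was taken as phosphorylated substrate. Beforehand, 0.21 nM JAK3 (0.0133 ng/µl) sat with compound for 3 h at room temperature, then biotinylated substrate plus ATP started the reaction.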
(In general: TR-FRET usually uses a lanthanide donor and a delayed reading to cut background.)

Experiment [3] addresses T1, EGFR (Homo sapiens (Human), UniProt P00533). The experiment is described as follows: HTRF KinEASE-TK kinase assay, EGFR. It counts as biochemical. The conditions noted are these: 3 h preincubation; for remaining activity at 1 µM: 1 μM compound, read-out: % EGFR Remaining activity vs DMSO (1 μM, 3 h); for remaining activity at 10 µM: 10 μM compound, read-out: % EGFR Remaining activity vs DMSO (10 μM, 3 h). A digest of the protocol:
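Buffer contained 5 mM MgCl2, 2 mM MnCl2 and 1 mM TCEP; compounds at two final concentrations, 1 and 10 uM, with 0.5% DMSO, pre-incubated with the enzyme.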

In experiment [4] the target is T2, BTK (Homo sapiens (Human), UniProt Q06187). Put plainly: Ramos RA1 cell lysis and immunoassay, total BTK degradation. It counts as cell-based. More on the design: key to % BTK degradation (RAMOS, 24 h): Y: BTK bound in cells and BTK degradation occurred; concentration or dose not given beside the values. The conditions noted are these: RAMOS cells. As for the experimental part:
(§1) Ramos RA 1 cells (ATCC) were cultured in RPMI-1640 media (Wisent) supplemented with 10% heat-inactivated FBS and 1% penicillin/streptomycin. Cells were seeded in 6-well plates at 1.71×10^6 cells/well and incubated at 37° C., 5% CO2 for 16 hours. Cells were treated with compound at the indicated concentrations or DMSO alone and incubated at 37° C., 5% CO2 for 24 hours. Cell suspensions were centrifugated at 1,400-1,600 RPM for 5 minutes at room temperature and supernatants were discarded. Cell pellets were resuspended with 1× RIPA buffer (Millipore) and incubated on ice for 15 minutes. Protein lysates were extracted by centrifugating at 20,000 RPM for 20 minutes at 4° C. Proteins were separated and total BTK protein levels were quantified by Simple Western Immunoassay (ProteinSimple) using the 12-230 kDa Jess Separation Module according to the manufacturer's protocol, using a protein concentration of 0.25 μg/μl and antibodies targeting BTK (clone #D3H5, Cell Signalling) and β-Actin (clone #AC-15, Santa Cruz) diluted to 1:400 and 1:10, respectively, where the latter was used as a loading control. An equal ratio of rabbit and mouse HRP-conjugated secondary antibodies was used for detection. BTK protein levels were quantified relative to S-Actin loading levels and subsequently normalized to the DMSO control. Phosphorylated BTK levels were quantified using the Protein Normalization Assay Module for Jess (ProteinSimple) according to the manufacturer's protocol, using a protein concentration of 1.5 μg/μl and an antibody targeting pBTK (Y223) (Cell Signalling) diluted to 1:50. Phosphorylated BTK levels were quantified relative to the Protein Normalization Reagent and subsequently normalized to the DMSO control.

Experiment [5] addresses RIPK2 (Homo sapiens (Human), UniProt O43353). Put plainly: In vitro RIPK2 inhibition. To be noted: for remaining activity at 1 µM: read-out: % RIPK2 Remaining activity vs DMSO (1 μM, 3 h); for remaining activity at 10 µM: read-out: % RIPK2 Remaining activity vs DMSO (10 μM, 3 h). The experiment is classed as biochemical.
Experiment [6] addresses T2, BTK. Put plainly: HTRF KinEASE-TK kinase assay, BTK. It counts as biochemical. To be noted: 3 h preincubation; for remaining activity at 1 µM: 1 μM compound, read-out: % BTK Remaining activity vs DMSO (1 μM, 3 h); for remaining activity at 10 µM: 10 μM compound, read-out: % BTK Remaining activity vs DMSO (10 μM, 3 h). The procedure, abridged:
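Read-out was the 665 nm to 620 nm ratio, taken 60 min after detection, reflecting phosphorylated biotinylated substrate. Before this, BTK reacted 45 min with substrate and ATP in kinase buffer supplemented with MnCl2 (10 mM), MgCl2 (5 mM), ATPγS (1 uM) and TCEP (1 mM).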

Experiment [7] concerns the target FGFR4 (Homo sapiens (Human), UniProt P22455). Put plainly: HTRF KinEASE-TK kinase assay, FGFR4. The conditions noted are these: for remaining activity at 1 µM: read-out: % FGFR4 Remaining activity vs DMSO (1 μM, 3 h); for remaining activity at 10 µM: read-out: % FGFR4 Remaining activity vs DMSO (10 μM, 3 h); for IC50: dose response. It counts as biochemical. A digest of the protocol:
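HTRF ratio (Em 665/620 nm) measured 60 min after EDTA stop with SA-XL665 (31.25 nM) and europium antibody reflects phosphorylated biotinylated substrate. Before substrate/ATP addition, 5.12 nM (0.333 ng/ul) FGFR4 sat with compound 3 h at room temperature.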

Experiment [8] has as its target BMX (Homo sapiens (Human), UniProt P51813). The experiment is described as follows: HTRF KinEASE-TK kinase assay, BMX. The experiment is classed as biochemical. To be noted: 3 h preincubation; for remaining activity at 1 µM: 1 uM compound; for remaining activity at 10 µM: 10 uM compound. A digest of the protocol: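 Phosphorylation was quantified by HTRF KinEASE-TK as the 665/620 nm ratio, read 60 min after EDTA stop with SA-XL665 (31.25 nM) and europium antibody. Before the reaction, 3.03 nM BMX was preincubated with compound for 3 hours at room temperature, and the reaction was started with biotinylated substrate plus ATP.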

For experiment [9], the target named is T2, BTK. The experiment is described as follows: Ramos RA1 cell lysis and immunoassay, phospho-BTK (Y223) inhibition. The experiment is classed as cell-based. Set-up: key: X: BTK bound and autophosphoration of BTK inhibited in cells. The conditions noted are these: RAMOS cells. As for the experimental part: as §1
Experiment [10] deals with T1, EGFR. The experiment is described as follows: Time-dependent inhibition of EGFR (HTRF). The conditions noted are these: pre-incubation 0-60 min. The experiment is classed as biochemical. As for the experimental part: For the time-dependent inhibition experiments, the activity of EGFR kinase was monitored using a HTRF® KinEASE-TK kit from Cisbio (62TK0PEC) as described above. Six compounds showing higher potency during dose response analysis against EGFR, were further evaluated for their change in inhibitory potency over time. Ibrutinib was used as a positive control. The selected compounds were pre incubated with the kinase at 11 different concentrations, ranging from […] to 25 uM final compound concentrations. The pre incubation times were 0, 2, 5, 10, 15, 30, 45 and 60 min. After the preincubation, the reaction was initiated by adding biotinylated substrate and ATP and the reaction was allowed to proceed for 45 min. […] The reaction was terminated by adding 31.25 nM SA-XL665 and 100 fold diluted europium labelled antibody (Eu-Ab), diluted in 1× detection buffer that contained EDTA. After 60 min of incubation, the fluorescence emission was measured at 620 nm and 665 nm. The ratio of Em 665 nm to Em 620 nm was proportional to the amount of substrate phosphorylated by the kinase. Product formation vs pre-incubation time data were fitted to a one phase exponential decay equation using GraphPad Prism. The same product formation vs inhibitor concentration data were also fitted to a log(antagonist) vs. response—Variable slope equation in GraphPad Prism to provide IC50 values at different pre incubation times.

T2 sequence (Q06187 whole entry): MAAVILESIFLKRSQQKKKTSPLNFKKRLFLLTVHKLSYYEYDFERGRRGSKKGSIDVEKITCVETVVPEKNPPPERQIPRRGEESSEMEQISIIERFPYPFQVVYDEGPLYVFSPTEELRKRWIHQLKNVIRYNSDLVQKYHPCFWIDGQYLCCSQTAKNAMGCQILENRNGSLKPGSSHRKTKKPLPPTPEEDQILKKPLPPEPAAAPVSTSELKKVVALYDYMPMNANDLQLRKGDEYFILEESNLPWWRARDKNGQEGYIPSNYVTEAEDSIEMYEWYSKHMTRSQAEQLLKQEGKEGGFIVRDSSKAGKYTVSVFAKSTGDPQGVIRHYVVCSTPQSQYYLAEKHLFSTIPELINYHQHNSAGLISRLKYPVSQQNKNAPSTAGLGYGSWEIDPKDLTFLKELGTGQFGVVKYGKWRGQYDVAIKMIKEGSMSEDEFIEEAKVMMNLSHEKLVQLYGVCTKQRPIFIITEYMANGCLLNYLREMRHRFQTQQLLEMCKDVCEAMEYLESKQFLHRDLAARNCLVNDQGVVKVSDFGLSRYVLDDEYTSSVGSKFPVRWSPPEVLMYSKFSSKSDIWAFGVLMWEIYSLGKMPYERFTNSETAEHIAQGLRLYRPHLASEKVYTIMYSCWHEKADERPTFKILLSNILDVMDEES
Chain of FGFR4 (P22455 22-802): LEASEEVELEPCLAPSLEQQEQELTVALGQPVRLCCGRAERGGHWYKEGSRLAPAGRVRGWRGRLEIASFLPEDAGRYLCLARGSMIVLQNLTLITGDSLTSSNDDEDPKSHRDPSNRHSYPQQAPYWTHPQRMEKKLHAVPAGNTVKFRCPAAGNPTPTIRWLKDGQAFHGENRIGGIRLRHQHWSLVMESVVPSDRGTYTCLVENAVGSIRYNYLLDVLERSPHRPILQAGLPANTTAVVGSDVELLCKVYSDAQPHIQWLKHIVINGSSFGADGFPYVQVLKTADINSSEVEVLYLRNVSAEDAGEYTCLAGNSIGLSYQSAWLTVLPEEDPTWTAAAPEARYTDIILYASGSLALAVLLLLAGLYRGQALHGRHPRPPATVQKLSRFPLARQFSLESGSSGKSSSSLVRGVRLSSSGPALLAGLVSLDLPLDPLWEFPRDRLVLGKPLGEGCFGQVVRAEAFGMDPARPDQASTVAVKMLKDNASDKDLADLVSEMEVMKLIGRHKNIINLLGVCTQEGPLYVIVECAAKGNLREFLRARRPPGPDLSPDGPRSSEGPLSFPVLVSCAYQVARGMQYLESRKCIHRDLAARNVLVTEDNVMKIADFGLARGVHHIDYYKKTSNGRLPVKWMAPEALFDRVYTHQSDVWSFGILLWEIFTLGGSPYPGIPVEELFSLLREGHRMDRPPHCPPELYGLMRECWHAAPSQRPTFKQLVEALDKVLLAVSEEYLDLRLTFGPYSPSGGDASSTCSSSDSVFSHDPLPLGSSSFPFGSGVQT
Chain of RIPK2 (O43353 whole entry, species assumed): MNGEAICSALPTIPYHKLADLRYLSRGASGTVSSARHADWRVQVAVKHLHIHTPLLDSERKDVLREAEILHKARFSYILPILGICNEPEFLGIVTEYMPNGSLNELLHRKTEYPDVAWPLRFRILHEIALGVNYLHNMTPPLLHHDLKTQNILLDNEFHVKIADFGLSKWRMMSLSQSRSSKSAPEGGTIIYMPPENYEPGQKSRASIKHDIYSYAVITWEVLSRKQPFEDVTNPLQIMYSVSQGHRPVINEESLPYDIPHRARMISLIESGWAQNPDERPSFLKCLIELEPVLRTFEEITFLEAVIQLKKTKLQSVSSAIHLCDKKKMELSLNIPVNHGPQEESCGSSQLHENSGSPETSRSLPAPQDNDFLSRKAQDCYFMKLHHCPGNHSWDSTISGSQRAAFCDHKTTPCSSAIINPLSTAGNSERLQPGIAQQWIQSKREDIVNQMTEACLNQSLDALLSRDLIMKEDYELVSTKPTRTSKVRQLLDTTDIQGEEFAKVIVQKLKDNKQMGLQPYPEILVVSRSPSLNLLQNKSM
Chain of JAK3 (P52333 781-1124): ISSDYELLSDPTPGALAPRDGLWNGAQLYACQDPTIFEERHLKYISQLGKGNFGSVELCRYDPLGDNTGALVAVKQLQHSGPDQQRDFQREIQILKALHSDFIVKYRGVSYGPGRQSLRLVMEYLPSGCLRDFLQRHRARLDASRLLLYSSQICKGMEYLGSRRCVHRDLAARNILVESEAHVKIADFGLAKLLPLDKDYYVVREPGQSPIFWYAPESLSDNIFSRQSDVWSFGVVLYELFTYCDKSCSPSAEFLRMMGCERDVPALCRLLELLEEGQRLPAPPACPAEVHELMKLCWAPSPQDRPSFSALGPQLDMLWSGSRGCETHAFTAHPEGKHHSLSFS
Chain of BMX (P51813 whole entry): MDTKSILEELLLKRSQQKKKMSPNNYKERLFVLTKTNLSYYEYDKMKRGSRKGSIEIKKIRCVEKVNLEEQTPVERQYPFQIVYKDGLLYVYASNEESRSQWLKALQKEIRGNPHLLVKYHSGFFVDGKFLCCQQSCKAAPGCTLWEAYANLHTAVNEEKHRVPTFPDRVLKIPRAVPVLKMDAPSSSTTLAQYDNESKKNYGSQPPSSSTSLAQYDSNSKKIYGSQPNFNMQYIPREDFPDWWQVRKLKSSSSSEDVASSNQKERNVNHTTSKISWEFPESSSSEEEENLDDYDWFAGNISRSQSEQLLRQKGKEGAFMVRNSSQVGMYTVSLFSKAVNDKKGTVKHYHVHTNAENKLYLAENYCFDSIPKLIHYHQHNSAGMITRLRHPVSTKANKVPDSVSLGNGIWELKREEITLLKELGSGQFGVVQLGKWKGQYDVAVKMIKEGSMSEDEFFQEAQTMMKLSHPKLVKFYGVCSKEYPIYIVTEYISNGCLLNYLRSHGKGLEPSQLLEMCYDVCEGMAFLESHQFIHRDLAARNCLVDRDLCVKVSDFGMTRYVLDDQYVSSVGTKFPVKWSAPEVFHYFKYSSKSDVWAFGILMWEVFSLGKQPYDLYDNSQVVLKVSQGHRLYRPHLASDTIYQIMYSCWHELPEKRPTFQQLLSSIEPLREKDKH
T1 sequence (P00533 25-1210): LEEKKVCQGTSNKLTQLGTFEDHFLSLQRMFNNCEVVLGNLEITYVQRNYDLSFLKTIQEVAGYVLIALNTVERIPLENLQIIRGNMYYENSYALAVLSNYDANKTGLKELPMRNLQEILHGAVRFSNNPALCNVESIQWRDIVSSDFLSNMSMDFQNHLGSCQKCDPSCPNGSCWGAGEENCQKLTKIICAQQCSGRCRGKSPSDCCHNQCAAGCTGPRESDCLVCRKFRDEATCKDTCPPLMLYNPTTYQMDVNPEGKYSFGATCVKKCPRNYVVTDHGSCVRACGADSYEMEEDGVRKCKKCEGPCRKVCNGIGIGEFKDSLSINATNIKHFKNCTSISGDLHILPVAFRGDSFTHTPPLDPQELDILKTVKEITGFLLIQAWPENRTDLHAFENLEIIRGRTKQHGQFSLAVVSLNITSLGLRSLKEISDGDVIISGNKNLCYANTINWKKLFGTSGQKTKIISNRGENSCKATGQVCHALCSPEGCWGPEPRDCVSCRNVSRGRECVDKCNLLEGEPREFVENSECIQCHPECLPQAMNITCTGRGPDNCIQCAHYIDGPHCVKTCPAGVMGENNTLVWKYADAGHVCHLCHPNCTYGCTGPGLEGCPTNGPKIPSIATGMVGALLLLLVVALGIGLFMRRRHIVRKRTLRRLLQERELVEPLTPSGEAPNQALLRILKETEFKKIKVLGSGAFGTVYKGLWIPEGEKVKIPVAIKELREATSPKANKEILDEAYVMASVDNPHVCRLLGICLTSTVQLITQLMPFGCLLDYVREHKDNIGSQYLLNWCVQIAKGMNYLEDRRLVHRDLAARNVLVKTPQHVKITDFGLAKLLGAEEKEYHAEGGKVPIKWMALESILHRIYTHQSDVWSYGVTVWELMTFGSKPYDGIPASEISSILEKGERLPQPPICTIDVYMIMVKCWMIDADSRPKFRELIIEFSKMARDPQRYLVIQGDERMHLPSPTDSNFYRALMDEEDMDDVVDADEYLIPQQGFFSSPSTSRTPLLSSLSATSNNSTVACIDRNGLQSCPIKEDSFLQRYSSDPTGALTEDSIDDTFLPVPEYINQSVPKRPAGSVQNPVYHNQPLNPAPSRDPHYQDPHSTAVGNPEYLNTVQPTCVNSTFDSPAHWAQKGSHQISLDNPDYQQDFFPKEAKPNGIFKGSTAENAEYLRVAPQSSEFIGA

In the case of `COc1ccc(NS(=O)(=O)c2c(F)c(F)c(F)c(F)c2C(F)(F)F)cc1F` [Compound I-6, 2,3,4,5-tetrafluoro-N-(3-fluoro-4-methoxyphenyl)-6-(trifluoromethyl) benzenesulfonamide], the “Beta-tubulin - K562 24 hrs (1 μM)” value in experiment [1] (1 μM) is recorded as “Y”. For the same molecule, in experiment [1] (compound concentration 10), the “Beta-tubulin K562, compound concentration, 24 hrs” value was “Y”.
For orientation: remaining activity means the activity still measured, relative to the control. As to `Nc1ncnc2c1c(-c1ccc(Oc3ccccc3)cc1)nn2[C@@H]1CCCN(C(=O)c2c(F)c(F)c(F)c(F)c2S(N)(=O)=O)C1` [Compound I-35, (R)-2-(3-(4-amino-3-(4-phenoxyphenyl)-1H-pyrazolo[3,4-d]pyrimidin-1-yl)piperidine-1-carbonyl)-3,4,5,6-tetrafluorobenzenesulfonamide], the remaining activity at 1 µM in experiment [2] was over 90%; in experiment [3] it was over 90%; in experiment [5], over 90%; in experiment [6], under 50%; in experiment [7] it was 50 to 90%; in experiment [8], under 50%. Further, the remaining activity at 10 µM in experiment [2] was over 90%; in experiment [3], over 90%; in experiment [5], over 90%; in experiment [6], under 50%; in [7] it was under 50%; in experiment [8], under 50%. For the same molecule, the “% BTK degradation (RAMOS, 24 h)” value in experiment [4] was “Y”. For the same molecule, in experiment [9] (compound concentration 1 μM), the “pBTK inhibition (RAMOS, 24 h)” value is “X”.
`CS(=O)(=O)c1c(F)c(F)c(F)c(F)c1C(=O)n1ccc2c(N)ncnc21` [Compound I-49, (4-amino-7H-pyrrolo[2,3-d]pyrimidin-7-yl)(2,3,4,5-tetrafluoro-6-(methylsulfonyl)phenyl)methanone]: the remaining activity at 1 µM in experiment [2] was over 90%; in [3], over 90%; in [5], under 50%; in experiment [6] it was 50 to 90%; in experiment [7], 50 to 90%; in experiment [8], 50 to 90%. In addition, the remaining activity at 10 µM in experiment [2] is over 90%; in experiment [3], over 90%; in experiment [5], under 50%; in experiment [6], under 50%; in experiment [7] it was under 50%; in experiment [8], under 50%. The “% BTK degradation (RAMOS, 24 h)” value in experiment [4] is given as “Y”.
In general, IC50 refers to the concentration that inhibits the measured activity by half. Consider `COCCOc1ccc(Nc2ncc(F)c(Nc3cccc(NS(=O)(=O)c4c(F)c(F)c(F)c(F)c4C(F)(F)F)c3)n2)cc1` [Compound I-53, 2,3,4,5-tetrafluoro-N-(3-((5-fluoro-2-((4-(2-methoxyethoxy)phenyl)amino)pyrimidin-4-yl)amino)phenyl)-6-(trifluoromethyl)benzenesulfonamide], for which the IC50 in experiment [2] is under 1000 nM; in experiment [6] (dose response, read-out: BTK Inhibition IC50), under 1000 nM; in experiment [7], under 1000 nM. Further, the remaining activity at 1 µM was under 50% in [2]; 50 to 90% in [3]; under 50% in [6]; under 50% in experiment [7]; under 50% in [8]. The remaining activity at 10 µM in [2], in [3], in [6], in experiment [7] and in experiment [8] was under 50% in each case. Moreover, the “pBTK inhibition (RAMOS, 24 h)” value in experiment [9] (compound concentration 2.5 μM) was “X”.
As for `COCCOc1ccc(Nc2ncc(F)c(Nc3cccc(NS(=O)(=O)c4c(F)c(F)c(F)c(F)c4OC(F)F)c3)n2)cc1` [Compound I-54, 2-(difluoromethoxy)-3,4,5,6-tetrafluoro-N-(3-((5-fluoro-2-((4-(2-methoxyethoxy)phenyl)amino)pyrimidin-4-yl)amino)phenyl)benzenesulfonamide], the IC50 in [2] is over 1000 nM; in experiment [7], under 1000 nM. The remaining activity at 1 µM in experiment [2] was under 50%; in experiment [3], over 90%; in [6], under 50%; in experiment [7], under 50%; in [8], under 50%. Besides, the remaining activity at 10 µM in [2] is under 50%; in [3] it was 50 to 90%; in experiment [6], under 50%; in experiment [7] it was under 50%; in experiment [8], under 50%. Also, the “pBTK inhibition (RAMOS, 24 h)” value in experiment [9] (compound concentration 5 μM) was “X”.
For `C=CC(=O)N1CCC[C@@H](n2nc(-c3ccc(Oc4ccccc4)cc3)c3c(N)ncnc32)C1` [ibrutinib, reference compound], in experiment [10] (mono-exponential decay fit), the “Time-dependent inhibition of EGFR: product formation versus pre-incubation time” value is given as “concentration-dependent first order loss of enzyme activity”. Further, the “Time-dependent inhibition of EGFR: IC50 values versus pre-incubation time” value in [10] is reported as “decrease as pre-incubation times increase”.
